Measurements reported in patent US7279468B2, “Integrin ligands” (Abbott GmbH & Co. KG, priority 2000, dated 2007).

Target: T1, integrin αvβ3 (Homo sapiens, UniProt P05106+P06756)
T1 construct: from tissue; host or cells: human placenta
Assay: Integrin αvβ3 assay (competition between vitronectin and test substance for binding to solid phase-bound integrin αvβ3)
Conditions: competition with human vitronectin, integrin αvβ3 from human placenta, comparison in words only
Experimental: For the identification and assessment of integrin αvβ3 ligands, a test system was used which was based on competition between the natural integrin αvβ3 ligand vitronectin and the test substance for binding to solid phase-bound integrin αvβ3.
• Microtiter plates coated with 250 ng/ml of integrin αvβ3 in 0.05 M NaHCO3 pH 9.2; 0.1 ml/well; • saturation with 1% powdered milk/assay buffer; 0.3 ml/well; 0.5 h/RT • 3× washing with 0.05% Tween 20/assay buffer • test substance in 0.1% powdered milk/assay buffer, 50 μl/well 0 μg/ml or […] of human vitronectin (Boehringer Ingelheim T007) in 0.1% powdered milk/assay buffer, 50 μl/well; 1 h/RT • 3× washing with 0.05% Tween 20/assay buffer • 1 μg/ml of anti human vitronectin antibody coupled to peroxidase (Kordia SAVN-APHRP) in 0.1% powdered milk/assay buffer; 0.1 ml/well; 1 h/RT • 3× washing with 0.05% Tween 20/assay buffer • 0.1 ml/well of peroxidase substrate • stop reaction with 0.1 ml/well of 2 M H2SO4 • measurement of the absorption at 450 nm • Integrin αvβ3: Human placenta is solubilized with Nonidet and integrin αvβ3 affinity-purified on a GRGDSPK matrix (elution with EDTA). […]

IC50 values (concentration of the ligand at which 50% of the ligand is displaced): best result
Structure (SMILES): O=C(O)CC1CCN(CC(=O)NCc2ccc(Nc3nc4ccccc4[nH]3)cc2)C(=O)c2ccccc21 (stereo not shown) [Example II, [2-(2-{[4-(1H-Benzimidazol-2-ylamino)benzyl]amino}-2-oxoethyl)-1-oxo-2,3,4,5-tetrahydro-1H-2-benzazepin-5-yl]acetic acid]
